{"source": "patent US10786475B2", "about": "“Method for preventing, treating, or improving fatty liver by administering effective amounts of azelaic acid to a subject” (Korea University Research and Business Foundation, priority 2018, dated 2020)", "key": {"[1]": {"system": "ob/ob mouse", "assay": "Fatty liver inhibitory effect in ob/ob mouse", "type": "in vivo", "details": "60% high-fat diet, AzA 50 mg/kg oral, 6 weeks", "experimental": "A 7-week-old male fatty liver model ob/ob mouse was purchased from Central Laboratory Animal Inc. to be used in an experiment. An AzA was orally administered at 50 mg/kg of body weight along with a 60% high-fat diet (HFD) for 6 weeks. As the experiment progresses, body weight was measured once a week, and food intake was measured […] on the last week. The concentration of triglycerides in liver tissue was measured by homogenizing liver tissue of a mouse in 600 μL of acetone (Daejung, Korea), storing the homogenate at 4° C. for 24 hours, and obtaining a fat part by centrifugation at 12000 rpm for 10 minutes. The fat part was dried, dissolved in 95% ethanol, quantified using a Cobas C11 autoanalyzer (Roche, Basel, Switzerland) and normalized with a liver weight. A fatty acid oxidation rate was measured and analyzed by the method of Example 4-4 described above."}, "[2]": {"system": "Hepa1c1c-7 cells stimulated by LPS", "assay": "GPCR 10-pathway reporter assay in LPS-induced Hepa1c1c-7 cells", "type": "cell-based, mouse", "details": "100 ng/mL LPS 1 hour, then 50 μM AzA 6 hours", "experimental": "Mouse hepatocytes, i.e., Hepa1c1c-7 cells were seeded on a 96 well-plate at 1×10^4 cells/well and cultured for 24 hours, and transfected with a construct including a transcription factor promoter and a luciferase for 8 hours. The experiment was performed on two groups, i.e., a group with inflammation in hepatocytes caused by LPS and a group not being treated with LPS. In the non-treated control, 50 μM of AzA was treated for 6 hours, and in the experimental group, inflammation was induced by treating 100 ng/mL of LPS, the inflammation-inducing material, for 1 hour, and then 50 μM of AzA was treated for 6 hours. As a result, downstream pathway, which was activated by an AzA, was confirmed. To confirm a mechanism of an anti-inflammatory effect of an AzA, 10 transcription factors for signal transduction of GPCR were analyzed. […] Based on the Olfr544-cAMP-CREB signal transduction process of an AzA, the change of a complicated downstream signal transduction pathway system in response to GPCR activation and inhibition was examined using 10 types of transcription factors through a GPCR 10-pathway reporter assay. A GPCR 10-signal transduction pathway measurement is a method for assessing a representative signal pathway of GPCR using a reporter gene assay method, and the change of a complicated downstream signal transduction pathway system in response to the activation and inhibition of GPCR can be assessed using 10 types of transcription factors. A GPCR Signaling 10-pathway Reporter Array (QIAGEN, Netherlands) used in this example includes a transcription factor inducing downstream signal transduction and a firefly luciferase construct in each experimental group, and is based on a principle, in which luciferase activity is measured by continuously expressing a Renilla luciferase construct. The 10 types of transcription factors are as follows: ATF2/ATF3/ATF4, CREB, ELK1/SRF, FOS/JUN, MEF2, GLI, FOXO, STAT3, NFAT, and NFκB. In this example, the luciferase activity was measured using a dual luciferase assay kit (Promega, USA) and Victor™ X2 (PerkinElmer, CA, USA)."}, "[3]": {"system": "LPS mouse", "assay": "LPS-induced inflammation in C57BL/6J male mouse, liver gene expression", "type": "in vivo", "details": "AzA 100 mg/kg, LPS 10 mg/kg intraperitoneally, liver 16 hours after LPS", "experimental": "Eight-week-old C57BL/6J male […] were purchased from Samtako (Gyeonggi-do, Korea). All experiments were carried out according to protocols approved by the Animal Experiment Committee of Korea University (Protocol No. KUIACUC-20090420-4). Mice were maintained under a 12-hour photoperiod at 21 to 25° C. and relative humidity of 50% to 60%. In normal groups and LPS-induced groups, 100 μL of deionized water was administered to each mouse using an oral sonde for 4 days, and 100 μL of LPS was intraperitoneally injected at a dose of 10 mg/kg one hour after the administration with deionized water on the last day, Day 4. In a group into which LPS was administered after the AzA administration, each mouse was orally administered 100 μL of AzA at a dose of 100 mg/kg for 4 days, and intraperitoneally injected with 100 μL of 10 mg/kg LPS one hour after the AzA administration on the last day, Day 4. Sixteen hours after the LPS intraperitoneal injection, the mice were anesthetized with avertin, and dissected to extract liver tissue. The liver tissue was obtained, immediately stored in liquid nitrogen, and then stored at −80° C.\n1 μg of RNA extracted from the stored liver tissue was used to synthesize cDNA using a ReverTra Ace® qPCR RT kit (TOYOBO, Osaka, Japan). […]"}}}
{"smiles": "O=C(O)CCCCCCCC(=O)O", "note": "[AzA, nonanedioic acid]", "values": [{"measurement": "expression of PPARα and a target gene thereof (Hmgcs2) in liver tissue", "setting": "[1]", "value": "significantly increased"}, {"measurement": "triglyceride concentration in liver tissue", "setting": "[1]", "value": "reduced"}, {"measurement": "body weight", "setting": "[1]; compared with control group", "value": "decreased"}, {"measurement": "CREB transcription factor activity (cAMP/PKA pathway)", "setting": "[2]", "value": "significant activities"}, {"measurement": "ELK1/SRF transcription factor activity (MAPK/ERK pathway)", "setting": "[2]", "value": "significant activities"}, {"measurement": "STAT3 transcription factor activity (IL-6 signaling pathway)", "setting": "[2]", "value": "significant activities"}, {"measurement": "gene expression levels of inflammatory cytokines IL-6 and TNF-α in liver tissue", "setting": "[3]", "value": "tendency of reduction in inflammatory responses"}]}
